Reference: PubChem BioAssay (NCI)
“And” between values parts separate entries of the source, which are not always exact repeats. Identical values can stand only once.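 Test compounds were applied to cells in 96-well plates for 48 hours at 5 doses. GI50 marks 50% less growth. TGI denotes the concentration required for complete inhibition of growth.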

How the values were obtained:
Experiment in all cases: inhibition of tumour cell growth, NCI panel, 48 h
786-0 renal = system: 786-0 renal
SF-295 CNS = system: SF-295 CNS
SR leukemia = system: SR leukemia
NCI-H522 lung = system: NCI-H522 lung
NCI-H226 lung = system: NCI-H226 lung
SK-MEL-2 melanoma = system: SK-MEL-2 melanoma
ACHN renal = system: ACHN renal
CCRF-CEM leukemia = system: CCRF-CEM leukemia
U251 CNS = system: U251 CNS
UO-31 renal = system: UO-31 renal

SMILES	GI50 (786-0 renal)	TGI (786-0 renal)	GI50 (SF-295 CNS)	TGI (SF-295 CNS)	GI50 (SR leukemia)	TGI (SR leukemia)	GI50 (NCI-H522 lung)	TGI (NCI-H522 lung)	GI50 (NCI-H226 lung)	TGI (NCI-H226 lung)	GI50 (SK-MEL-2 melanoma)	TGI (SK-MEL-2 melanoma)	GI50 (ACHN renal)	TGI (ACHN renal)	GI50 (CCRF-CEM leukemia)	TGI (CCRF-CEM leukemia)	GI50 (U251 CNS)	TGI (U251 CNS)	GI50 (UO-31 renal)	TGI (UO-31 renal)
O=C1/C(=C\c2ccc(F)cc2)CN(C(=O)c2ccccc2F)C/C1=C\c1ccc(F)cc1	1.61 µM	3.17 µM	2.08 µM	5.02 µM	0.32 µM	3.03 µM	1.61 µM	3.15 µM	3.41 µM	12.8 µM	2.04 µM	4.61 µM	1.61 µM	3.6 µM	0.736 µM	4.97 µM	1.27 µM	2.58 µM	1.49 µM	2.94 µM
Cc1ccc(N)cc1[As]=[As]c1cc(N)ccc1C (stereo not given)	1.64 µM	3.03 µM	4.6 µM	12.3 µM	0.944 µM	> 25.1 µM	0.122 µM	0.268 µM	1.57 µM	3.07 µM	1.97 µM	3.54 µM	1.67 µM	3.26 µM	0.298 µM	2.36 µM	1.35 µM	2.69 µM	1.57 µM	3.03 µM
CN1CCC2(CC1)N=C(SCC(=O)Nc1cnc3ccccc3c1)C(c1ccc(Br)cc1)=N2	1.5 µM	2.85 µM	1.79 µM	3.93 µM	2.07 µM	5.29 µM	1.91 µM	3.82 µM	10.4 µM	26.2 µM	1.93 µM	3.88 µM	1.7 µM	3.39 µM	2.21 µM	5.31 µM	1.83 µM	3.65 µM	1.37 µM	2.68 µM
CN1CCN(CCCNC(=O)c2c3c(n4ccccc24)C(=O)c2ncccc2C3=O)CC1	1.63 µM	22.3 µM	1.25 µM	13.1 µM	0.529 µM	> 26.2 µM	1.01 µM	3.86 µM	2.67 µM	14.1 µM	2.67 µM	11.4 µM	0.866 µM	5.49 µM	2.16 µM	> 27.8 µM	1.48 µM	6.54 µM	1.81 µM	30.7 µM
O=C(NC1CC1)c1c(O)[nH]c(=S)[nH]c1=O	–	> 100 µM	–	> 100 µM	–	> 100 µM	–	> 100 µM	–	> 100 µM	–	> 100 µM	–	> 100 µM	–	> 100 µM	–	> 100 µM	–	> 100 µM
Cc1ccccc1NC(=O)/C(=N\NC(N)=S)C(C#N)c1ccccc1 (stereo not given)	–	> 100 µM	–	> 100 µM	–	> 100 µM	–	> 100 µM	–	> 100 µM	–	> 100 µM	–	> 100 µM	–	> 100 µM	–	> 100 µM	–	> 100 µM
COC(=O)C1C(C(=O)O)C2(c3ccccc3)C(=O)C1(c1ccccc1)C(c1ccccc1)=C2c1ccccc1 (stereo not given)	21.2 µM	37.5 µM	22.9 µM	71.2 µM	23.8 µM	56.6 µM	16 µM	34.1 µM	24.8 µM	66 µM	16.5 µM	34.1 µM	25.8 µM	88.1 µM	11.7 µM	33.6 µM	24.2 µM	> 100 µM	17.9 µM	36 µM
NC(=O)c1c(NC(=O)c2cccs2)sc2c1CCC(=O)C2	4.34 µM	> 100 µM	2.86 µM	9.42 µM	1.43 µM	> 100 µM	0.892 µM	7.92 µM	3.96 µM	48.3 µM	2.71 µM	7.78 µM	2.16 µM	8.88 µM	0.458 µM	> 100 µM	2.28 µM	> 100 µM	1.58 µM	10.1 µM
CCN1CCN(c2nc(C)cc(NCc3cc(Nc4ccnc5cc(Cl)ccc45)ccc3F)n2)CC1	1.54 µM	3.13 µM	1.05 µM	2.61 µM	1.3 µM	5.89 µM	3.02 µM	7.77 µM	2.82 µM	10.3 µM	2.12 µM	4.1 µM	2.47 µM	7.4 µM	2.06 µM	15.2 µM	1.95 µM	5.44 µM	1.31 µM	2.99 µM
CCCCC(=O)N(c1ccc(Nc2c3ccccc3nc3cc([N+](=O)[O-])ccc23)cc1)S(C)(=O)=O	4.3 µM	> 100 µM	4.83 µM	> 100 µM	1.97 µM	> 42.6 µM	3.93 µM	16 µM	8 µM	32.9 µM	23.3 µM	62.9 µM	3.85 µM	> 88.7 µM	3.65 µM	> 100 µM	5.32 µM	> 59.1 µM	3.61 µM	45.3 µM
CCc1nc(C)cn1C(=O)OCc1nc2nc(Cl)nc(N3CCOCC3)c2[nH]1	1.61 µM	3.29 µM	2.79 µM	11.7 µM	0.288 µM	> 100 µM	1.37 µM	3.37 µM	1.84 µM	4.11 µM	1.72 µM	3.29 µM	0.854 µM	2.09 µM	0.302 µM	1.19 µM	1.63 µM	3.42 µM	1.01 µM	2.18 µM
CC(=Nc1ccc(N(C)C)cc1)c1ccccc1	–	36.2 µM	–	> 100 µM	–	49.9 µM	–	40.8 µM	–	> 100 µM	–	29.4 µM	–	77.1 µM	–	92.6 µM	–	> 100 µM	–	40.7 µM
N#C/C(=C\c1cc(O)c(O)c(O)c1)C(N)=O	–	> 100 µM	–	> 100 µM	–	> 92.3 µM	–	> 100 µM	–	> 100 µM	–	> 100 µM	–	> 100 µM	–	> 76.2 µM	–	> 100 µM	–	> 100 µM
C/C(=N\NC(=O)c1ccncc1)c1sc(-n2nc(-c3ccccc3)cc2-c2ccccc2)nc1C	–	> 31.6 µM	–	> 31.6 µM	–	> 31.6 µM	–	> 80.5 µM	–	> 100 µM	–	> 31.6 µM	–	> 31.6 µM	–	> 31.6 µM	–	> 31.6 µM	–	> 31.6 µM
Nc1[nH]nc2nc(-c3cc(Cl)ccc3Cl)cc(-c3ccc(F)cc3)c12	23.7 µM	59.2 µM	25.7 µM	73.4 µM	18 µM	69.2 µM	14.4 µM	31.5 µM	22.6 µM	60.6 µM	21.2 µM	43.2 µM	31.9 µM	> 100 µM	0.813 µM	11.3 µM	21.6 µM	44.8 µM	13.8 µM	34.7 µM
COc1ccc2c(c1)C(=Nc1ccc(F)c(Cl)c1)c1c-2c(Nc2ccc(F)c(Cl)c2)nc2ccccc12	14.9 µM	42.8 µM	33 µM	> 100 µM	0.0122 µM	0.0862 µM	44.3 µM	> 100 µM	39 µM	> 77.6 µM	23.6 µM	> 71.8 µM	24.1 µM	> 70.8 µM	0.804 µM	3.99 µM	18.8 µM	43.8 µM	> 100 µM	> 100 µM
C#C[C@@]1(O)[C@@H](CO)O[C@@H](n2cc(Br)c3c(Cl)ccnc32)[C@@H]1O	1.68 µM	> 100 µM	1.03 µM	> 100 µM	1.06 µM	> 100 µM	3.64 µM	> 100 µM	1.08 µM	> 27 µM	35.2 µM	> 100 µM	1.74 µM	> 100 µM	0.386 µM	> 100 µM	40 µM	> 100 µM	2.16 µM	> 100 µM
COc1cccc2c1C(=O)c1c(O)c3c(c(O)c1C2=O)C[C@@](O)(/C(CO)=N/NC(=O)CCCCCN1C(=O)C=CC1=O)C[C@@H]3O[C@H]1C[C@H](N)[C@H](O)[C@H](C)O1	0.386 µM	9.21 µM	0.404 µM	5.56 µM	0.109 µM	> 100 µM	0.56 µM	4.21 µM	0.56 µM	3.37 µM	1.68 µM	5.33 µM	0.717 µM	> 51.5 µM	0.334 µM	> 100 µM	0.325 µM	15.8 µM	3.47 µM	27.9 µM
C[C@@H](Nc1cc(F)cc(F)c1)c1cc(C(=O)N(C)C)cc2c(=O)cc(N3CCOCC3)oc12	0.192 µM	> 100 µM	1.23 µM	59.9 µM	21.9 µM	> 100 µM	20.8 µM	> 100 µM	> 88.2 µM	> 100 µM	25.8 µM	> 100 µM	3.51 µM	> 100 µM	27.5 µM	> 100 µM	8.58 µM	> 100 µM	2.38 µM	> 100 µM
C[C@]12CC[C@H](O[C@@H]3O[C@H](CO[C@@H]4O[C@H](CO)[C@@H](O)[C@H](O)[C@H]4O)[C@@H](O)[C@H](O)[C@H]3O)C[C@@H]1CC[C@@H]1[C@@H]2CC[C@]2(C)[C@@H](C3=CC(=O)OC3)CC[C@]12O	–	> 100 µM	–	> 31.6 µM	–	> 100 µM	–	46.7 µM	–	> 95.8 µM	–	> 94 µM	–	> 100 µM	–	> 100 µM	–	> 100 µM	–	> 66.5 µM
Cc1cccc(NC(=O)C(=O)C(C2OC(=O)c3ccccc32)[N+](=O)[O-])c1C (stereo not given)	–	21.8 µM	–	28.1 µM	–	> 100 µM	–	4.2 µM	–	26.4 µM	–	17.2 µM	–	22.9 µM	–	20.4 µM	–	12.6 µM	–	21.4 µM
CCC12C=CCN(CCc3c([nH]c4ccccc34)/C=C\1)C2 (stereo not given)	–	> 100 µM	–	> 100 µM	–	> 100 µM	–	> 100 µM	–	> 100 µM	–	> 100 µM	–	> 100 µM	–	> 100 µM	–	> 100 µM	–	> 100 µM
COC(=O)[C@H](Cc1cn(C)cn1)NC(=O)[C@H](CC(=O)OCc1ccccc1)NC(=O)Nc1cc(C(F)(F)F)cc(C(F)(F)F)c1	10.9 µM	24.2 µM	10.9 µM	24 µM	3.67 µM and 2.04 µM	9.41 µM and 4.34 µM	8.53 µM	21.4 µM	16.3 µM	34.5 µM	3.89 µM	12.6 µM	10.4 µM	24 µM	9.81 µM	24.7 µM	2.61 µM	7.85 µM	11.5 µM	24.2 µM
Cc1cc(O)ccc1C1=NN(c2ccc(S(N)(=O)=O)cc2)C(=O)CC1	18.9 µM and 43.6 µM	50 µM and > 100 µM	2.21 µM and 4.82 µM	34.7 µM and 24.3 µM	1.05 µM and 1.12 µM	50 µM and 6.78 µM	1.12 µM and 2.48 µM	33.5 µM and > 100 µM	10.9 µM and 94.5 µM	50 µM and > 100 µM	16.8 µM and 10.4 µM	50 µM and 77.7 µM	19.3 µM and 38.3 µM	50 µM and > 100 µM	9.88 µM and 10.5 µM	50 µM and > 100 µM	6.97 µM and 16.1 µM	50 µM and 67 µM	18.1 µM and 35.1 µM	50 µM and > 100 µM
C=C1C(=O)O[C@H]2[C@H]1CC/C(COC(=O)c1cccnc1N)=C\CC[C@@]1(C)O[C@@H]21	1.7 µM	4.24 µM	4.15 µM	16 µM	0.539 µM	10.4 µM	0.379 µM	2 µM	10.1 µM	24.4 µM	3.16 µM	12.5 µM	1.03 µM	10.3 µM	0.345 µM	2.47 µM	3.77 µM	14.5 µM	2.17 µM	10.2 µM
C=CCn1c2ccccc2c2c3c(c4c5ccccc5n(CC=C)c4c21)C(=O)N(O)C3=O	2.66 µM	40.4 µM	2.62 µM	8.62 µM	0.363 µM	5.67 µM	1.09 µM	2.56 µM	6.36 µM	42.2 µM	13 µM	46.1 µM	1.6 µM	3.89 µM	0.971 µM	7.1 µM	2.79 µM	11.4 µM	1.75 µM	5 µM
C=C1c2nc3ccccc3n2C=C(c2cccc(Cl)c2)N1Cc1ccc(OC)cc1	3.08 µM	17.3 µM	1.42 µM	6.91 µM	0.274 µM	1.31 µM	0.221 µM	1.1 µM	4.5 µM	30 µM	0.636 µM	68 µM	1.11 µM	> 100 µM	2.75 µM	> 23.3 µM	0.768 µM	> 100 µM	1.92 µM	33.7 µM
